The text below walks through data of PubChem BioAssay AID248 (DTP/NCI, 2004).

The structures appear in SMILES notation. “And” between values parts separate entries of the source, which are not always exact repeats. Identical values can stand only once. Toxic doses and inconclusive results are not listed.

This assay deals with L1210 leukemia ip in BDF1 mice, survival T/C. Put plainly: NCI In Vivo Anticancer Drug Screen. Data for tumor model L1210 Leukemia (intraperitoneal) in B6D2F1 (BDF1) mice. To be noted: endpoint: mean survival time, higher = longer survival. Put shortly: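 Antitumor effect is assessed in tumor-bearing animals. Survival in the compound arm is compared with a vehicle-dosed control arm and expressed as their quotient.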

[1] abbreviates: dose: 100.0 mg/kg/injection, schedule: Q01DX009 (ip), vehicle: saline with Tween-80.
[2] abbreviates: dose: 200.0 mg/kg/injection, schedule: Q01DX009 (ip), vehicle: saline with Tween-80.
Setting [3] is: dose: 100.0 mg/kg/injection, schedule: Q04DX002 (ip), vehicle: Klucel (hydroxypropylcellulose) (HPC).
[4] abbreviates: dose: 200.0 mg/kg/injection, schedule: Q04DX002 (ip), vehicle: Klucel (hydroxypropylcellulose) (HPC).
Setting [5] is: dose: 400.0 mg/kg/injection, schedule: Q04DX002 (ip), vehicle: Klucel (hydroxypropylcellulose) (HPC).
The mark [6] stands for this setting: dose: 100.0 mg/kg/injection, schedule: Q04DX002 (ip), vehicle: saline with Tween-80.
[7] abbreviates: dose: 200.0 mg/kg/injection, schedule: Q04DX002 (ip), vehicle: saline with Tween-80.
Setting [8] is: dose: 400.0 mg/kg/injection, schedule: Q04DX002 (ip), vehicle: saline with Tween-80.
Where [9] appears, read: dose: 100.0 mg/kg/injection, schedule: Q01DX009 (ip), vehicle: saline.
[10] abbreviates: dose: 100.0 mg/kg/injection, schedule: Q04DX003 (ip), vehicle: saline.
Where [11] appears, read: dose: 100.0 mg/kg/injection, schedule: Q04DX003 (ip), vehicle: Klucel (hydroxypropylcellulose) (HPC).
Where [12] appears, read: dose: 100.0 mg/kg/injection, schedule: Q01DX009 (ip), vehicle: Klucel (hydroxypropylcellulose) (HPC).
Setting [13] is: dose: 200.0 mg/kg/injection, schedule: Q01DX009 (ip), vehicle: Klucel (hydroxypropylcellulose) (HPC).
[14] abbreviates: dose: 100.0 mg/kg/injection, schedule: Q04DX003 (ip), vehicle: saline with Tween-80.
Setting [15] is: dose: 200.0 mg/kg/injection, schedule: Q04DX003 (ip), vehicle: saline with Tween-80.
The mark [16] stands for this setting: dose: 400.0 mg/kg/injection, schedule: Q04DX003 (ip), vehicle: saline with Tween-80.

As to `CCCCC[C@H](CN(C)C)[C@H](O)/C=C/c1ccc(Cl)cc1`, the T/C runs as follows: (dose: 12.5 mg/kg/injection, schedule: Q04DX002 (ip), vehicle: saline) 113 % of control; (dose: 25.0 mg/kg/injection, schedule: Q04DX002 (ip), vehicle: saline) 110 % of control; (dose: 50.0 mg/kg/injection, schedule: Q04DX002 (ip), vehicle: saline) 102 % of control.
Turning to `COc1cc(NC(=O)c2ccc(Cl)cc2Cl)c(OC)cc1Cl`, the T/C is 90 % of control (dose: 50.0 mg/kg/injection, schedule: Q01DX009 (ip), vehicle: saline with Tween-80); 90 % of control under setting [1]; 96 % of control under setting [2].
With `CCC(C)(C)C(=O)OCc1ccccc1`, the T/C by setting is: (dose: 50.0 mg/kg/injection, schedule: Q04DX002 (ip), vehicle: Klucel (hydroxypropylcellulose) (HPC)) 105 % of control; under setting [3], 94 % of control; under setting [4], 94 % of control and 111 % of control; under setting [5], 103 % of control.
`ClCC1COC(CCc2ccccc2)O1` (stereo not given): the T/C is 95 % of control (dose: 222.0 mg/kg/injection, schedule: Q01DX Z (ip), vehicle: saline); 95 % of control (dose: 333.0 mg/kg/injection, schedule: Q01DX Z (ip), vehicle: saline); 113 % of control (dose: 500.0 mg/kg/injection, schedule: Q01DX Z (ip), vehicle: saline).
`Cc1cc(-c2ccc(NC(=O)N(C)C)c(C)c2)ccc1NC(=O)N(C)C`: the T/C is 100 % of control under setting [6], 114 % of control under setting [7] and 96 % of control under setting [8].
In the case of `CN1CCC(OC2c3ccccc3CCc3ccccc32)CC1`, the T/C is, setting by setting: (dose: 3.12 mg/kg/injection, schedule: Q01DX009 (ip), vehicle: saline) 109 % of control; (dose: 6.25 mg/kg/injection, schedule: Q01DX009 (ip), vehicle: saline) 108 % of control; (dose: 12.5 mg/kg/injection, schedule: Q01DX009 (ip), vehicle: saline) 106 % of control; (dose: 25.0 mg/kg/injection, schedule: Q01DX009 (ip), vehicle: saline) 111 % of control; (dose: 25.0 mg/kg/injection, schedule: Q04DX003 (ip), vehicle: saline) 100 % of control; (dose: 50.0 mg/kg/injection, schedule: Q01DX009 (ip), vehicle: saline) 117 % of control. Further, the T/C was 103 % of control (dose: 50.0 mg/kg/injection, schedule: Q04DX003 (ip), vehicle: saline); 88 % of control under setting [9]; 86 % of control under setting [10].
Regarding `C=CCON(C)c1ccccc1`, the T/C under setting [10] was 94 % of control; the T/C (dose: 200.0 mg/kg/injection, schedule: Q04DX003 (ip), vehicle: saline) is 108 % of control; the T/C (dose: 400.0 mg/kg/injection, schedule: Q04DX003 (ip), vehicle: saline) is 96 % of control.
For `Cn1c(=N)sc2ccc3ccccc3c21`, the T/C is 90 % of control (dose: 12.5 mg/kg/injection, schedule: Q04DX003 (ip), vehicle: Klucel (hydroxypropylcellulose) (HPC)); 91 % of control (dose: 25.0 mg/kg/injection, schedule: Q04DX003 (ip), vehicle: Klucel (hydroxypropylcellulose) (HPC)); 98 % of control (dose: 50.0 mg/kg/injection, schedule: Q04DX003 (ip), vehicle: Klucel (hydroxypropylcellulose) (HPC)); 86 % of control under setting [11].
For the compound `COc1cc(C)cc(C(=O)O)c1`, the T/C by setting is: under setting [6], 97 % of control; under setting [7], 101 % of control; under setting [8], 101 % of control.
In the case of `CCCCCCCCCCCCC(=O)[O][Hg][c]1ccccc1`, the T/C (dose: 9.38 mg/kg/injection, schedule: Q01DX001 (ip), vehicle: steriod suspending solution) was 96 % of control and the T/C (dose: 18.75 mg/kg/injection, schedule: Q01DX001 (ip), vehicle: steriod suspending solution) is 98 % of control.
Take `O=[N+]([O-])c1ccc(S(=O)(=O)O/N=C2\c3ccccc3-c3ccc([N+](=O)[O-])cc32)cc1`: the T/C runs as follows: under setting [12], 161 % of control; under setting [11], 97 % of control; under setting [13], 109 % of control; (dose: 200.0 mg/kg/injection, schedule: Q04DX003 (ip), vehicle: Klucel (hydroxypropylcellulose) (HPC)) 98 % of control; (dose: 400.0 mg/kg/injection, schedule: Q01DX009 (ip), vehicle: Klucel (hydroxypropylcellulose) (HPC)) 109 % of control; (dose: 400.0 mg/kg/injection, schedule: Q04DX003 (ip), vehicle: Klucel (hydroxypropylcellulose) (HPC)) 95 % of control.
With `CCS(=O)CCNC(=O)NS(=O)(=O)c1ccc(C)cc1` (stereo not given), the T/C was 100 % of control under setting [14], 101 % of control under setting [15] and 97 % of control under setting [16].
With `N#Cc1c(N)[n+]([O-])c2c([n+]1[O-])CCCC2`, the T/C reads like this: under setting [3], 101 % of control; under setting [4], 104 % of control; under setting [5], 87 % of control.
`N#Cc1c(N)nc2ccccc2[n+]1[O-]`: the T/C by setting is: (dose: 50.0 mg/kg/injection, schedule: Q01DX009 (ip), vehicle: Klucel (hydroxypropylcellulose) (HPC)) 94 % of control; under setting [12], 97 % of control; under setting [13], 100 % of control.
With `N#C/C(=C\C1CCC(Cl)C(Cl)C1)C1CCC([N+](=O)[O-])CC1` (stereo not given), the T/C is, setting by setting: under setting [6], 91 % of control; under setting [8], 91 % of control.
Take `CCCP(=S)(CCC)CCC`: the T/C (dose: 100.0 mg/kg/injection, schedule: Q01DX001 (ip), vehicle: saline with Tween-80) was 103 % of control and the T/C (dose: 200.0 mg/kg/injection, schedule: Q01DX001 (ip), vehicle: saline with Tween-80) was 94 % of control.
Consider `COc1ccc(NC(=O)Oc2ccc3c(C)cc(=O)oc3c2)c(OC)c1`, for which the T/C reads like this: under setting [1], 106 % of control; under setting [14], 101 % of control; under setting [2], 106 % of control; under setting [15], 116 % of control; (dose: 400.0 mg/kg/injection, schedule: Q01DX009 (ip), vehicle: saline with Tween-80) 118 % of control; under setting [16], 106 % of control.
Turning to `CSc1ccc(NC(=O)Nc2c(C)cc(C)cc2C)cc1`, the T/C by setting is: (dose: 25.0 mg/kg/injection, schedule: Q01DX009 (ip), vehicle: other) 92 % of control; (dose: 50.0 mg/kg/injection, schedule: Q01DX009 (ip), vehicle: other) 93 % of control; (dose: 100.0 mg/kg/injection, schedule: Q01DX009 (ip), vehicle: other) 102 % of control.
With `COc1cccc(/C=C2/COC/C(=C\c3cccc(OC)c3OC)C2=O)c1OC`, the T/C is, setting by setting: under setting [9], 91 % of control; (dose: 200.0 mg/kg/injection, schedule: Q01DX009 (ip), vehicle: saline) 97 % of control.
`CC(C)CCC(C)c1ccncc1` (stereo not given): the T/C (dose: 100.0 mg/kg/injection, schedule: Q01DX001 (ip), vehicle: saline) was 103 % of control; the T/C (dose: 200.0 mg/kg/injection, schedule: Q01DX001 (ip), vehicle: saline) was 97 % of control; the T/C (dose: 400.0 mg/kg/injection, schedule: Q01DX001 (ip), vehicle: saline) is 100 % of control.
